Data taken from patent publication US8163756B2 (priority 2004, dated 2012).

Columns and labels:
Assay type in all cases: biochemical
Abl kinase = target: T1, Abl kinase (Homo sapiens, UniProt P00519); experiment: Abl kinase assay A1 (pyruvate kinase/lactate dehydrogenase coupled, spectrophotometric); conditions: Method A1; for IC50: read-out: Abl Data (IC50)
T1 sequence (P00519 229-512): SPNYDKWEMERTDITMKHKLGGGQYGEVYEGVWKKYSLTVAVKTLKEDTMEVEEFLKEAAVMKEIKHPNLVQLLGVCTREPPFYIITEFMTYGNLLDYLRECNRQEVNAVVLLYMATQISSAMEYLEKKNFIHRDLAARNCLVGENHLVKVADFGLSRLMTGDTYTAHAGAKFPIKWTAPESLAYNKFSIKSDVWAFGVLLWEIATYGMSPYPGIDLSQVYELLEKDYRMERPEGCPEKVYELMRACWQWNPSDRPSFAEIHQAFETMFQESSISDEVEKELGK
Method: IC50 values were calculated from a series of percent inhibition values determined at a range of inhibitor concentrations using software routines as implemented in the GraphPad Prism software package.

B-Raf(V599E) kinase = B-Raf(V599E) kinase (Homo sapiens, UniProt P15056, V600E); experiment: B-Raf(V599E) kinase assay B1 (construct 1, MEK1 substrate, coupled spectrophotometric)
Method: The test compounds were incubated with the reaction mixtureat 30° C. for 2 h. […] The reaction rate was calculated using the […] time frame. […] IC50 values were calculated from a series of percent inhibition values determined at a range of inhibitor concentrations using software routines as implemented in the GraphPad Prism software package.

[1] = target: phosphorylated p-38-alpha kinase (Homo sapiens, UniProt Q16539); experiment: P-38 alpha kinase assay P1 (coupled spectrophotometric, 2 h pre-incubation); conditions: method P1 (2 h pre-incubation); read-out: P-38 Data
phosphorylated p-38-alpha kinase, sequence (Q16539 1-360 isoform Q16539-2): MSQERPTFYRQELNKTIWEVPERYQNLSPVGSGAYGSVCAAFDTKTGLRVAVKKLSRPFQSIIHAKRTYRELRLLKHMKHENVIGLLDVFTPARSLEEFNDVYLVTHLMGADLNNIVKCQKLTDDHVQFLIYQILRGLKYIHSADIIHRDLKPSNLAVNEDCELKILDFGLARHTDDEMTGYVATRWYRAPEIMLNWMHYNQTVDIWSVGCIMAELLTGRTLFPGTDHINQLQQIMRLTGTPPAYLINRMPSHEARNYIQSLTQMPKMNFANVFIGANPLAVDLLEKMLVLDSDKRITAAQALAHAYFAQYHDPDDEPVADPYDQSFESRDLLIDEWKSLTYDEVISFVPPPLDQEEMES

B-Raf(V599E) kinase, sequence (P15056 with tags, fused parts or gaps V600E): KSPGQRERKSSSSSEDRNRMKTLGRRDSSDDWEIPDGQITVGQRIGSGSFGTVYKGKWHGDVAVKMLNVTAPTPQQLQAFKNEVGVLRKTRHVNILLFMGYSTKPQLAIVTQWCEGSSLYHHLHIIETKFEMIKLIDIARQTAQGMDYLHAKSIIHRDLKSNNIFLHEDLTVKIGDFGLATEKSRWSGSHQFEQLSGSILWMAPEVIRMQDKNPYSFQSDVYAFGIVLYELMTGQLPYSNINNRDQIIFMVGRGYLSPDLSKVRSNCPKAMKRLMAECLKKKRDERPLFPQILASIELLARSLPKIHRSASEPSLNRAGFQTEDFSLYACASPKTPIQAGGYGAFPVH

Row | SMILES | IC50 (Abl kinase) | IC50 (B-Raf(V599E) kinase) | inhibition at 10 µM (Abl kinase; @ 10 μM, read-out: Abl Data (percent inhibition)) | IC50 [1]
1 | CC(C)(C)c1cc(NC(=O)Nc2ccc3c(c2)OCO3)n(-c2cccc(C#N)c2)n1 [Example 6, 1-(benzo[d][1,3]dioxol-5-yl)-3-(3-t-butyl-1-(3-cyanophenyl)-1H-pyrazol-5-yl)urea] | 3000 nM | 180 nM |  | 
2 | COc1cccc(NC(=O)Nc2cc(C(C)(C)C)nn2-c2cccc(C#N)c2)c1 [Example 10] | 4300 nM |  |  | 
3 | CC(C)(C)c1cc(NC(=O)Nc2cccc(C(F)(F)F)c2)n(-c2cccc(C#N)c2)n1 [Example 11] | 5100 nM |  |  | 
4 | COc1cccc(-n2nc(C(C)(C)C)cc2NC(=O)Nc2cc(Cl)cc(Cl)c2)c1 [Example 14, 1-(3-t-butyl-1-(3-methoxyphenyl)-1H-pyrazol-5-yl)-3-(3,5-dichlorophenyl)urea] | 2400 nM | 70 nM |  | 
5 | COc1cccc(-n2nc(C(C)(C)C)cc2NC(=O)Nc2cccc(C#N)c2)c1 [Example 17, 1-(3-t-butyl-1-(3-methoxyphenyl)-1H-pyrazol-5-yl)-3-(3-cyanophenyl)urea] | 370 nM | 89 nM |  | 
6 | CC(C)(C)c1cc(NC(=O)Nc2cccc(Cl)c2Cl)n(-c2cccc(CC(=O)NC[C@H](O)CO)c2)n1 [Example 36, 1-(3-t-butyl-1-(3-(2-((S)-2,3-dihydroxypropylamino)-2-oxoethyl)phenyl)-1H-pyrazol-5-yl)-3-(2,3-dichloro-phenyl)urea] | 720 nM |  |  | 
7 | CC(C)(C)c1cc(NC(=O)Nc2cccc(Cl)c2Cl)n(-c2cccc(CC(=O)NCCO)c2)n1 [Example 37, 1-(3-t-butyl-{1-[3-(2-hydroxyethylamino)-2-oxo-thyl]-phenyl}-1H-pyrazol-5-yl)-3-(2,3-dichlorophenyl)-urea] | 1400 nM | 5.7 nM |  | 
8 | CC(C)(C)c1cc(NC(=O)Nc2cccc(Br)c2)n(-c2cccc(CN)c2)n1 [Example 41, 1-(1-[3-(aminomethyl)phenyl]-3-t-butyl-1H-pyrazol-5-yl)-3-(3-bromophenyl)urea] | 3700 nM | 89 nM |  | 
9 | CCOC(=O)c1cc(-n2nc(C(C)(C)C)cc2NC(=O)Nc2cccc(Cl)c2Cl)cc2ccccc12 [Example 58, 3-{3-t-butyl-5-[3-(2,3-dichlorophenyl)ureido]-pyrazol-1-yl}naphthalene-1-carboxylic acid ethyl ester] | 4700 nM |  |  | 
10 | CC(C)(C)c1cc(NC(=O)Nc2cc(F)cc(F)c2)n(-c2cc(CO)c3ccccc3c2)n1 [Example 59, 1-(3-t-butyl-1-(4-(hydroxymethyl)naphthalen-2-yl)-1H-pyrazol-5-yl)-3-(3,5-difluorophenyl)urea] | 79 nM | 8.7 nM |  | 
11 | CC(C)(C)c1cc(NC(=O)Nc2ccc(F)c(F)c2F)n(-c2cc(CO)c3ccccc3c2)n1 [Example 62, 1-(3-t-butyl-1-(4-(hydroxylmethyl)naphthalen-2-yl)-1H-pyrazol-5-yl)-3-(2,3,4-trifluorophenyl)urea] | 110 nM | 3.2 nM |  | 
12 | CC(C)(C)c1cc(NC(=O)Nc2ccc(F)cc2F)n(-c2cc(CO)c3ccccc3c2)n1 [Example 63, 1-(3-t-butyl-1-(4-(hydroxylmethyl)naphthalen-2-yl)-1H-pyrazol-5-yl)-3-(2,4-difluorophenyl)urea] | 300 nM | 4 nM |  | 
13 | CC(C)(C)c1cc(NC(=O)Nc2cc(F)c(F)cc2F)n(-c2cc(CO)c3ccccc3c2)n1 [Example 64, 1-(3-t-butyl-1-(4-(hydroxymethyl)naphthalen-2-yl)-1H-pyrazol-5-yl)-3-(2,4,5-trifluorophenyl)urea] | 63 nM | 3.3 nM |  | 
14 | CC(C)(C)c1cc(NC(=O)Nc2cc(F)c(F)c(F)c2)n(-c2cc(CO)c3ccccc3c2)n1 [Example 66, 1-(3-t-butyl-1-(4-(hydroxymethyl)naphthalen-2-yl)-1H-pyrazol-5-yl)-3-(3,4,5-trifluorophenyl)urea] | 71 nM | 8.5 nM |  | 
15 | CC(C)(C)c1cc(NC(=O)Nc2cc(F)cc(F)c2F)n(-c2cc(CN)c3ccccc3c2)n1 [Example 70, 1-(1-(4-(aminomethyl)naphthalen-2-yl)-3-t-butyl-1H-pyrazol-5-yl)-3-(2,3,5-trifluorophenyl)urea] | 50 nM | 5 nM |  | 
16 | CC(C)(C)c1cc(NC(=O)Nc2cc(F)c(F)cc2F)n(-c2cc(CN)c3ccccc3c2)n1 [Example 71, 1-(1-(4-(aminomethyl)naphthalen-2-yl)-3-t-butyl-1H-pyrazol-5-yl)-3-(2,4,5-trifluorophenyl)urea] | 90 nM | 4.1 nM |  | 
17 | CCOC(=O)Cc1cc(-n2nc(C(C)(C)C)cc2NC(=O)Nc2cccc(Cl)c2Cl)cc2ccccc12 [Example 76] |  | 11 nM | 31% | 

Row | SMILES | IC50 (Abl kinase) | IC50 (B-Raf(V599E) kinase) | inhibition at 10 µM (Abl kinase; @ 10 μM, read-out: Abl Data (percent inhibition)) | IC50 [1]
18 | CC(C)(C)c1cc(NC(=O)Nc2cccc(Cl)c2Cl)n(-c2cc(CC(=O)O)c3ccccc3c2)n1 [Example 77, 2-(3-(3-t-butyl-5-(3-(2,3-dichlorophenyl)-ureido)-1H-pyrazol-1-yl)naphthalen-1-yl)acetic acid] | 260 nM | 3.9 nM |  | 
19 | CC(C)(C)c1cc(NC(=O)Nc2ccc(C#N)cc2)n(-c2cc(CC(N)=O)c3ccccc3c2)n1 [Example 79, 1-(1-(4-(2-amino-2-oxoethyl)naphthalen-2-yl)-3-t-butyl-1H-pyrazol-5-yl)-3-(4-cyanophenyl)urea] | 180 nM |  |  | 
20 | CC(C)(C)c1cc(NC(=O)Nc2cc(F)ccc2F)n(-c2cc(CC(N)=O)c3ccccc3c2)n1 [Example 87, 1-(1-(4-(2-amino-2-oxoethyl)naphthalen-2-yl)-3-t-butyl-1H-pyrazol-5-yl)-3-(2,5-difluorophenyl)urea] | 73 nM |  |  | 
21 | CC(C)(C)c1cc(NC(=O)NC2CCCCC2)n(-c2cc(CC(N)=O)c3ccccc3c2)n1 [Example 91, 1-(1-(4-(2-amino-2-oxoethyl)naphthalen-2-yl)-3-t-butyl-1H-pyrazol-5-yl)-3-cyclohexylurea] |  | 20 nM |  | 350 nM
22 | CC(C)(C)c1cc(NC(=O)Nc2cc(F)c(F)c(F)c2)n(-c2cc(CC(=O)NCC(O)CO)c3ccccc3c2)n1 (stereo not shown) [Example 98] | 34 nM |  |  | 
23 | CC(C)(C)c1cc(NC(=O)Nc2cc(F)ccc2F)n(-c2cc(CC(=O)NC(CO)CO)c3ccccc3c2)n1 [Example 99, 1-(3-t-butyl-1-(4-(2-(1,3-dihydroxypropan-2-ylamino)-2-oxoethyl)naphthalen-2-yl)-1H-pyrazol-5-yl)-3-(2,5-difluorophenyl)urea] | 38 nM |  |  | 
24 | CC(C)(C)c1cc(NC(=O)Nc2cccc(C#N)c2)n(-c2ccc3c(c2)CNCC3)n1 [Example 125, 1-(3-t-butyl-1-(1,2,3,4-tetrahydroisoquinolin-7-yl)-1H-pyrazol-5-yl)-3-(3-cyanophenyl)urea] | 180 nM |  |  | 
25 | CC(C)(C)c1cc(NC(=O)Nc2cccc(C#N)c2)n(-c2ccc3c(c2)CCNCC3)n1 [Example 167, 1-(3-t-butyl-1-(2,3,4,5-tetrahydro-1H-benzo[d]azepin-7-yl)-1H-pyrazol-5-yl)-3-(3-cyanophenyl)urea] | 310 nM |  |  | 
26 | CC(C)(C)c1ncc(NC(=O)Nc2cccc(Cl)c2Cl)c(-c2ccccc2)n1 [Example 279, 1-(2-t-butyl-4-phenylpyrimidin-5-yl)-3-(2,3-dichlorophenyl)urea] |  | 697 nM |  | 1050 nM
27 | CC(C)(C)c1ncc(NC(=O)Nc2cccc(Oc3cccnc3)c2)c(-c2ccccc2)n1 [Example 281, 1-(2-t-butyl-4-phenylpyrimidin-5-yl)-3-(3-(pyridin-3-yloxy)phenyl)urea] |  | 369 nM |  | 5800 nM
28 | CC(C)(C)c1cc(NC(=O)Nc2ccccc2)n(-c2cc(CC(=O)O)c3ccccc3c2)n1 [Example 301, {3-[3-t-butyl-5-(3-phenylureido)pyrazol-1-yl]naphthalen-1-yl}acetic acid] |  | 10 nM |  | 160 nM
29 | CC(C)(C)c1cc(NC(=O)Nc2ccc(F)c(F)c2F)n(-c2cccc(CC(=O)O)c2)n1 [Example 356, 2-(3-(3-t-butyl-5-(3-(2,3,4-trifluorophenyl)-ureido)-1H-pyrazol-1-yl)phenyl)acetic acid] |  | 14 nM |  | 72 nM
30 | CC(C)(C)c1cc(NC(=O)Nc2cccc(Cl)c2Cl)n(-c2cccc(CC(=O)NCC(O)CO)c2)n1 (stereo not shown) [Example 440, 1-(3-t-butyl-1-(3-(2-(2,3-dihydroxypropylamino)-2-oxoethyl)phenyl)-1H-pyrazol-5-yl)-3-(2,3-dichlorophenyl)urea] |  | 4.1 nM |  | 7 nM
31 | CO[C@@H]1CCN(C(=O)Cc2cccc(-n3nc(C(C)(C)C)cc3NC(=O)Nc3cccc(Cl)c3Cl)c2)C1 [Example 444, 1-(3-t-butyl-1-(3-(2-((R)-3-methoxypyrrolidin-1-yl)-2-oxoethyl)phenyl)-1H-pyrazol-5-yl)-3-(2,3-dichlorophenyl)urea] |  | 20 nM |  | 63 nM
32 | O=C(Cc1ccc(-n2nc(-c3cccs3)cc2NC(=O)N[C@H]2CCc3ccccc32)cc1)NCCO [Example 490, 1-((S)-2,3-dihydro-1H-inden-1-yl)-3-(1-(4-(2-(2-hydroxyethylamino)-2-oxoethyl)phenyl)-3-(thiophen-2-yl)-1H-pyrazol-5-yl)urea] |  |  |  | 53 nM
33 | CC(C)(C)c1cc(NC(=O)Nc2cccc(Cl)c2Cl)n(-c2ccc(CC(=O)NCC(O)CO)cc2)n1 (stereo not shown) [Example 493] |  | 11 nM |  | 4 nM
